Broadly, the EC50 is the midpoint of the concentration-response curve.

The nature of data set [1]: valsartan concentration in blood (serum) by MRM mass spectrometry. As to conditions: chronically valsartan-treated mice (40 mg/kg). It is filed as in vivo, mouse. The source says:
A series high throughput studies were initiated to assess and quantify antihypertensive drug levels and related metabolites in Tg 2576 and WT controls following in vivo treatments. […] Presently, using QSTAR (QqTOF) mass spectrometry, which delivers high sensitivity and resolution as well as unparalleled mass accuracy for determination of molecular weights of drugs and related metabolites at femtomole levels, the inventor is proceeding with studies aimed at detecting and eventually quantitating antihypertensive drugs and related metabolites in the brain or CSF. Thus, these technologies will accurate determination of the penetration of the blood brain barrier of candidate Aβ lowering antihypertensives in response to chronic treatments in vivo.

Data set [2] has as its system primary cortico-hippocampal neuron cultures. Kind of data set: MTT in primary screening.
Data set [3] concerns Tg2576 mice. The experiment in a line: tolerability: body weight, fluid consumption, glucose tolerance.
Another data set has as its system α-secretase. Details: dose or concentration left out as unconfirmed. As to conditions: primary Tg2576 neuron cultures, 16 hours.
The next data set deals with β-secretase (Mus musculus, UniProt P56818). On the set-up: dose or concentration left out as unconfirmed. As to conditions: primary Tg2576 neuron cultures, 16 hours.
Chain of β-secretase (P56818 46-501): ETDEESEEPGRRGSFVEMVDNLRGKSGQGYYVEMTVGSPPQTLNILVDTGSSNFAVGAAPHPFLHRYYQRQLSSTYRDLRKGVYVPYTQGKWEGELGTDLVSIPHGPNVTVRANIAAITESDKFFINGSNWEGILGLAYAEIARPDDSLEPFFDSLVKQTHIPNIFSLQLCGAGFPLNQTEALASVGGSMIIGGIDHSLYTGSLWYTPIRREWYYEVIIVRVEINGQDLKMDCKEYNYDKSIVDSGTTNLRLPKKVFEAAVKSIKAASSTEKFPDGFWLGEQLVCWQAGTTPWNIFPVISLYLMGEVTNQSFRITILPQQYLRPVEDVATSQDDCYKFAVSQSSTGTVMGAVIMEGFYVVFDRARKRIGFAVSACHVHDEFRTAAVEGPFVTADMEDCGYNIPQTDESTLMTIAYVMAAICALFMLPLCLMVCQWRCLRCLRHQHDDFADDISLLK
For data set [4], the system named is Tg2576 mice. The experiment in a line: Morris water maze test of spatial memory. It is filed as in vivo, mouse. The source says: In the MWM assay, experimental animals are placed into a circular water tank and provided with a submerged “escape platform” at a specific location. Appropriate visual cues are located on a wall surrounding the water tank. Through repeated “learning trials”, normal animals typically learn to use the visual cues for spatial navigation and eventually require less time to swim to the platform as reflected by reducing escape latency.
Behavioral assessment of cognitive function by the Morris water maze test. […] At ˜11 months of age, mice were put into the water maze from 4 different quadrants; spatial memory was assessed by recording the average latency time for the animal to escape to the hidden platform. The behavior analysis was consistently conducted during the last 4 hours of the day portion of the light cycle in an environment with minimal stimuli (e.g., noise, movement, or changes in light or temperature).

The test system of data set [5] is Tg2576 mice. The experiment in a line: blood pressure (systolic, diastolic, MAP) by tail-cuff. It is filed as in vivo, mouse. The protocol:
FIG. 1 Tg2576 mice are characterized by normal blood pressure under basal conditions. Baseline measurements of systolic, diastolic blood pressure, and mean arteriole blood pressure (MAP) in ˜11 month old female Tg2576 mice. Strain-, age-, gender-matched WT mice were measured using a commercial blood pressure analysis system designed specifically for small rodents (Hatteras Instruments, NC). Following manufacturer's instruction, mice were temporarily immobilized in a restraining chamber and an inflated tail-cuff wrapped around the tail was used to measure the systolic pressure, diastolic pressure, and MAP. Each blood pressure determination was calculated as the mean of 10 individual measurements per animal (n=6-10 group).
FIG. 6A-C show body weight of mice in response to ˜3 weeks of treatment. […] FIG. 6D-F show the assessment of systolic, diastolic, and MAP blood pressure in Tg2576 mice in response to drug doses below or within the range of those prescribed in hypertension. Blood pressure measurements were conducted using a commercial blood pressure analysis system designed specifically for small rodents (Hatteras Instruments, NC). Following manufacturer's instruction, mice were temporarily immobilized in a restraining chamber and an inflated tail-cuff wrapped around the tail was used to measure pressures. Each blood pressure determination was calculated as the mean of 10 individual measurements per animal. In A-F, values represent mean±SEM values, n=3-5 mice per group. 2-tailed t-test: *P<0.05.
Assessment of blood pressure and glucose utilization. Mouse blood pressure was routinely recorded using a commercial blood pressure analysis system designed specifically for small rodents (Hatteras Instruments, NC). […] Briefly, mice were given a single dose of glucose post-prandially (i.p. 2 g/kg body weight). Blood was collected from the tail-vein periodically over a 2-hour period. Blood glycemic content was assessed using the OneTouch LifeScan System, (LifeScan, Milpitas, Calif.) following the manufacturer's instruction.

The target in a further data set is T1, Aβ1-42 peptide (Homo sapiens, UniProt P05067).
T1 construct: Lyophilized Aβ1-42 peptide was dissolved
T1 sequence (P05067 672-713 limits assumed): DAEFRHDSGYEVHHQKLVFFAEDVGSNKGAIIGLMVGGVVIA
Kind of data set: Aβ-peptide oligomerization assay in vitro (Western blot, A11 dot blot). It is filed as biochemical. How it is done:
Aβ-peptideoligomerization assay in vitro: Lyophilized Aβ1-42 peptide was dissolved in 1,1,1,3,3,3,-hexafluoro-2-propanol (HFIP, from Sigma), incubated at room temperature for 60 min, aliquoted, vacuum dried and stored at −80° C. Aβ peptide was dissolved in DMSO and diluted into ddH2O to a final concentration of 100 μg/ml. The peptide was then mixed with equal volume of drugs and incubated at 37° C. for 1 day (Klein, W. L. 2002. Neurochemistry International 41:345-352).
Following incubation, samples were centrifuged at 14,000×g for 10 min at 4° C. Supernatants were mixed with 2× SDS sample buffer and separated on a 10-20% Tris-Tricine gradient SDS gel (Invitrogen). The separated peptides were subjected to Western blot using 6E10 antibody (1:1000, Signet, St. Louis). Immunoreactive signals were visualized by using enhanced chemiluminescence detection (Amersham), and quantified densitometrically (Quantity One, Bio-Rad).
Immunoreactive signals were detected and quantified as described above.
(A western blot detects proteins with antibodies after separation by electrophoresis.)

Another data set has as its system Aβ1-42. Kind of data set: Aβ1-42 content in conditioned medium of primary cortico-hippocampal neuron cultures from Tg2576 mice (ELISA; primary and secondary dose-response screening). It is filed as cell-based, mouse. In general terms: An ELISA detects its analyte on a solid surface through an enzyme-linked reagent.
Another data set concerns γ-secretase. Details: dose or concentration left out as unconfirmed. As to conditions: primary Tg2576 neuron cultures, 16 hours.
Setting [6] is: valsartan 10 or 40 mg/kg/day in drinking water, chronic.

“Also recorded” adds a separate entry of the source. Like-named read-outs stand apart in the source and are kept apart here. Bounds are passed on as bounds.

In the case of “N-(1-oxopentyl)-N-[[2-(1H-tetrazol-5-yl) [1,1-biphenyl]-4-yl]methyl]-L-valine [Valsartan]”, the “steady state levels in the blood (serum)” value in data set [1] is given as “successfully detected steady state levels”. Also, the “MTT (% of ctl)” value is given as 67.4 % of ctl in [2] (Primary Screening, table sorted by Aβ1-40) and 67.4 % of ctl in [2] (primary screening, table sorted by Aβ1-42). In the data set with Tg2576 mice [3] (setting [6]), the body weight entry was “no detectable changes in body weight; also recorded: did not significantly influence animal body weight”. Also, the fluid intake entry in the data set with Tg2576 mice [3] (setting [6]) was “did not significantly influence the amount of fluid intake”. Also, the glucose-tolerance responses entry with Tg2576 mice [3] (valsartan 10 or 40 mg/kg/day, ~5 months) was “did not significantly influence”. The α-secretase activity entry with α-secretase is “no detectable change”. In addition, at β-secretase, the β-secretase activity result is listed as “selectively inhibition of β-secretase activity”. For the same substance, the “escape latency in Morris water maze” value in the data set on Tg2576 mice [4] (Tg2576 mice, valsartan 10 and 40 mg/kg/day vs untreated) was “significant improvement in escape latency; also recorded: significantly reduced escape latency; also recorded: performed significantly better than untreated mice”. Further, the “spatial memory performance in Morris water maze” value with Tg2576 mice [4] (WT mice, valsartan 10 or 40 mg/kg/day) is “did not significantly influence spatial memory performance; also recorded: failed to influence spatial reference memory performance”. In addition, the “systolic, diastolic, MAP blood pressure” value was “no detectable changes in systolic, diastolic, or MAP” in the data set on Tg2576 mice [5] (WT mice, valsartan); “did not significantly influence systolic, diastolic, or MAP; also recorded: did not influence systolic, diastolic, and MAP blood pressure; also recorded: failed to produce a statistically significant change” in the data set on Tg2576 mice [5] (normotensive Tg2576 mice, valsartan 10 or 40 mg/kg/day, chronic). Moreover, at Aβ1-42 peptide, the “in vitro anti-Aβ oligomerization activity compared with other Aβ-lowering antihypertensives” value is “qualitatively stronger in vitro anti-Aβ oligomerization activity”. Besides, the “Aβ1-42 oligomerization (A11 dot-blot)” value at Aβ1-42 peptide (24 hours after incubation, vs vehicle) is reported as “prevented Aβ1-42 oligomerization”. The “prevention of oligomerization of Aβ1-42 (and Aβ1-40) into >40 kDa HMW species (Western Blot)” value at Aβ1-42 peptide (valsartan 10 μM, vs vehicle) is greater than 5 fold. The EC50 came out at 1.79e-05 M with Aβ1-42 (Table IV, dose-response 0.01-100 μM, read-out: EC50 (M): Ab-lowering activity Aβ1-42); 1.79e-05 M with Aβ1-42 (conditioned medium of primary cortico-hippocampal neuron cultures from Tg2576 embryos, 24 hours after treatment, relative to vehicle (1% DMSO) control, read-out: EC50 (molar) Aβ1-42); 1.79e-05 M in the data set on Aβ1-42 (secondary dose-response screening 0.01-100 μM, 24 hours, read-out: EC50 (molar) Aβ1-42). In the data set on γ-secretase, the γ-secretase activity result is “no detectable change”.

The record behind these values is patent US20100029654A1, “CARDIOVASCULAR COMPOSITIONS AND USE OF THE SAME FOR THE TREATMENT OF ALZHEIMER'S DISEASE” (MOUNT SINAI SCHOOL OF MEDICINE, priority 2006, published 2010).
